# Results from US12263248B2, “Compounds and compositions for intracellular delivery of therapeutic agents” (ModernaTX, Inc., priority 2018, dated 2025).
# Tests used:
# [1] = Lipid tissue accumulation in NHP after a single dose; conditions: 12 hours post dose
# [2] = One-month toxicological evaluation with weekly dosing in rat; type: in vivo, Sprague Dawley rat; conditions: weekly dosing 0.05, 0.5 and 2 mg/kg, one-month study
# Method: Serum ALT and AST levels: Samples were analyzed using a Modular Analytics analyzer.
# Next, tolerability and safety of the compound 18-based LNPs in vivo was tested. A full toxicological evaluation of compound 18-based LNPs in both Sprague Dawley rat and cynomolgus monkey was performed using a standard one-month study with weekly dosing at three dose levels in each species. Rats were dosed at 0.05, 0.5, and 2 mg/kg and a non-human primates was dosed at 0.1, 0.3, and 1 mg/kg. LNP-related toxicities associated with MC3-based LNP systems are generally associated with immunological (cytokine and complement activation) and hepatic injury. […] FIGS. 32 and 33 highlight the day 30 levels of alanine transferase (ALT, FIG. 32A) and aspartate aminotransferase (AST, FIG. 32B), two indicators of liver damage.
# [3] = system: ApoE-mediated LDLr dependent uptake; test: Expression in ApoE knockout mice and LDLr knockout mice; conditions: mouse, in vivo
# [4] = Lipid clearance from mouse tissues after weekly dosing; type: in vivo; conditions: for lipid levels in tissues after weekly dosing: mouse, 0.05 mg/kg mRNA on day 1, 8 and 15
# Method: Repeat dosing of mRNA in an MC3-based LNP for a therapeutic indication would be expected to lead to accumulation of MC3 in tissues, based on the measured half-life. Therefore it was investigated whether the favorable single dose pharmacokinetics of compound 18 were maintained with weekly dosing. Clearance of MC3 and compound 18 from multiple mouse tissues was measured after dosing 0.05 mg/kg mRNA on day 1, 8 and 15 (FIG. 30A). Following dosing with MC3 LNPs, lipid was detected in liver, spleen, plasma, kidney, heart and lung, with liver and spleen containing the largest concentrations (FIG. 30A, for full panel of tissues see FIG. 35A). […] Compound 18 was also detected in plasma, lung, and kidney, but not in heart (FIG. 35A).
# In vitro metabolite identification studies using compound 18 were also performed. […] The disappearance of parent compound 18 and the primary metabolite, compound 166, from mouse liver tissue was measured after dosing 0.25 mg/kg mRNA on days 1, 8, and 15.
# [5] = Pharmacokinetic study of lipids in liver, spleen and plasma; type: in vivo, rat; conditions: for Lipid level in liver 0.25 h / Lipid level in liver 0.5 h / Lipid level in liver 1 h / Lipid level in liver 2 h / Lipid level in liver 4 h / Lipid level in liver 8 h / Lipid level in liver 24 h / Lipid level in liver 48 h / Lipid level in spleen 0.25 h / Lipid level in spleen 0.5 h / Lipid level in spleen 1 h / Lipid level in spleen 2 h / Lipid level in spleen 4 h / Lipid level in spleen 8 h / Lipid level in spleen 24 h / Lipid level in spleen 48 h: rat, intravenous, 0.2 mpk
# Method: The AUC was calculated using the linear trapezoidal rule.
# [6] = Tolerability of Compound 18 formulation in non-human primates, single dose; type: in vivo
# Method: The tolerability and efficacy of nanoparticle compositions to non-human primates was also investigated using a sample formulation including Compound 18. The formulation was prepared according to the standard MC3 formulation described above and included an hEPO mRNA. Primates were administered a single dose of 0.05 (Group 1), 0.3 (Group 2), or 1.0 (Group 3) mpk via intravenous infusion for 60 minutes. Three primates were administered each dose. Expression of hEPO was measured prior to dosing and at 2, 6, 24, 48, and 96 hours post-treatment (Table 26). Table 28 includes levels of indicators of complement activation, while Table 29 includes cytokine induction data.
# In general, lower doses were better tolerated. High doses induced body temperature elevation and hunched posture, which is similar to the behavior observed for primates administered higher doses of MC3 formulations.
# [7] = One month toxicology evaluation in non-human primate: serum ALT and AST; type: in vivo; conditions: cynomolgus monkeys, 1 mg/kg mRNA, intravenously by 60 min infusion, dosed weekly, 24 post fifth dose; PBS pre-dose vs day 30 levels
# Method: FIGS. 32A-32C are a series of graphs summarizing the results of a one month toxicology evaluation in rat and non-human primate. PBS (phosphate buffered saline) was used as a control. […] The serum levels were measured 24 post fifth dose (n=4). […] The serum levels were measured 24 post fifth dose (n=4).
# [8] = rat, MC3-based mRNA containing LNP, 0.3 mg/kg dose mRNA; cited from earlier work
# [9] = single dose 0.05, 0.3 or 1.0 mpk, i.v. infusion 60 minutes
SMILES,lipid levels in tissues after weekly dosing [4],Lipid level in liver 0.25 h [5] [ng/g],Lipid level in liver 0.5 h [5] [ng/g],Lipid level in liver 1 h [5] [ng/g],Lipid level in liver 2 h [5] [ng/g],Lipid level in liver 4 h [5] [ng/g],Lipid level in liver 8 h [5] [ng/g],Lipid level in liver 24 h [5] [ng/g],Lipid level in liver 48 h [5] [ng/g],Lipid level in spleen 0.25 h [5] [ng/g],Lipid level in spleen 0.5 h [5] [ng/g],Lipid level in spleen 1 h [5] [ng/g],Lipid level in spleen 2 h [5] [ng/g],Lipid level in spleen 4 h [5] [ng/g],Lipid level in spleen 8 h [5] [ng/g],Lipid level in spleen 24 h [5] [ng/g],Lipid level in spleen 48 h [5] [ng/g],other results
"CCCCCCCCCOC(=O)CCCCCCCN(CCO)CCCCCCCC(=O)OC(CCCCCCCC)CCCCCCCC [Compound 18, Heptadecan-9-yl 8-((2-hydroxyethyl)(8-(nonyloxy)-8-oxooctyl)amino)octanoate]",significantly lower levels than MC3,5374,6023,6053,2037,839,296,5,5374,1230,2017,3213,3070,3770,1345,271,92,"lipid levels in tissues [1]: significantly lower levels; adverse findings [2]: no adverse findings; expression in ApoE knockout mice and LDLr knockout mice [3]: almost complete loss in expression; disappearance from mouse liver tissue ([4]; 0.25 mg/kg mRNA on days 1, 8, and 15): rapid clearance; reticulocyte counts ([6]; all groups, Day 5): marked increase; tolerability of the formulation ([6]; non-human primates, single dose): tolerated similarly to the MC3 formulation; Complement activation and cytokine release (IL-6 and MCP-1) ([6]; single dose 0.05, 0.3 or 1.0 mpk): dose-related and reversible; Alanine aminotransferase (ALT) levels [6, 9]: did not increase; Aspartate aminotransferase (AST) [6, 9]: increased in the high dose group on Day 2 and returned to baseline by Day 5; serum alanine aminotransferase levels [7]: No statistical difference; serum aspartate aminotransferase levels [7]: No statistical difference"
"CCCCC/C=C\C/C=C\CCCCCCCCC(CCCCCCCC/C=C\C/C=C\CCCCC)OC(=O)CCCN(C)C [MC3, DLin-MC3-DMA, reference compound]",Accumulation of MC3 was observed after each dose,13180,20500,16777,25967,24730,32633,33000,13180,4100,6237,4197,8613,11920,21200,19067,11563,"ALT, AST and pathology [8]: ALT and AST were elevated and pathology showed evidence of necrosis; liver tissue half-life ([5]; rat pharmacokinetic study): > 50 h"
